ChEMBL document CHEMBL1143642, “Preparation of 3-spirocyclic indolin-2-ones as ligands for the ORL-1 receptor” (Bioorg Med Chem Lett, 2005)

Columns and labels:
Format in all cases: cell-based
[1] = molecular target: Delta-type opioid receptor (Homo sapiens, UniProt P41143); assay: Binding affinity against human opioid receptor delta 1 expressed in HEK293 cells using [3H]DDPDE radioligand
Nociceptin receptor [2] = molecular target: T1, Nociceptin receptor (Homo sapiens, UniProt P41146); assay: Ability to inhibit calcium flux in HEK293 cells overexpresses human opiate receptor-like 1 in the presence of 100 nM nociceptin
T1 sequence (P41146 whole entry): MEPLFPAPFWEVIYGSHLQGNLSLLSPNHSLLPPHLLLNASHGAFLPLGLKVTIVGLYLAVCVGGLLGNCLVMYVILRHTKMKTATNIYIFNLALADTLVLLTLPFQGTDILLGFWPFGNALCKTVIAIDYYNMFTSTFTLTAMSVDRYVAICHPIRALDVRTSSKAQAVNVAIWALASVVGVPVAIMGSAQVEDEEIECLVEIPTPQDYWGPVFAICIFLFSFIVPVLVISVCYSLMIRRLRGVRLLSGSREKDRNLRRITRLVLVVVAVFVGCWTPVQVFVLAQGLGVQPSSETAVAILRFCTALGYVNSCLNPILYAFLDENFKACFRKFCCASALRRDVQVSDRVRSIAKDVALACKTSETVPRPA

Nociceptin receptor [3] = molecular target: T1, Nociceptin receptor; assay: Binding affinity determined by the ability to compete with [125I]-Tyr14- nociceptin from binding to human opiate receptor-like 1 expressed in HEK293 cells
Mu-type opioid receptor = Mu-type opioid receptor (Homo sapiens, UniProt P35372); assay: Binding affinity against human opioid receptor mu 1 expressed in HEK293 cells using [3H]DAMGO radioligand
Chain of Mu-type opioid receptor (P35372 whole entry): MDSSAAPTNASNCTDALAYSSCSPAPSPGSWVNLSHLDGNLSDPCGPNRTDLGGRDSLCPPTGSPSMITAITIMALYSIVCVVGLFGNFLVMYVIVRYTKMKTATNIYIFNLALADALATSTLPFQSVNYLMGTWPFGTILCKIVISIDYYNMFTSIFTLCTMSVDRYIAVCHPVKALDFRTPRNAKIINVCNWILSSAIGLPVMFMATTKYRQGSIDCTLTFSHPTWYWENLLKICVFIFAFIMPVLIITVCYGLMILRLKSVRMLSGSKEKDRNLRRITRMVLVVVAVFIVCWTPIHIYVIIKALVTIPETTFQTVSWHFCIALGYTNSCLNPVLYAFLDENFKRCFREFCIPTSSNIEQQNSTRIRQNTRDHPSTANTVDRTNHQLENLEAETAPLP

[4] = molecular target: Kappa-type opioid receptor (Homo sapiens, UniProt P41145); assay: Binding affinity against human opioid receptor kappa 1 expressed in HEK293 cells using 3H-U69,593 radioligand
Chain of Kappa-type opioid receptor (P41145 whole entry): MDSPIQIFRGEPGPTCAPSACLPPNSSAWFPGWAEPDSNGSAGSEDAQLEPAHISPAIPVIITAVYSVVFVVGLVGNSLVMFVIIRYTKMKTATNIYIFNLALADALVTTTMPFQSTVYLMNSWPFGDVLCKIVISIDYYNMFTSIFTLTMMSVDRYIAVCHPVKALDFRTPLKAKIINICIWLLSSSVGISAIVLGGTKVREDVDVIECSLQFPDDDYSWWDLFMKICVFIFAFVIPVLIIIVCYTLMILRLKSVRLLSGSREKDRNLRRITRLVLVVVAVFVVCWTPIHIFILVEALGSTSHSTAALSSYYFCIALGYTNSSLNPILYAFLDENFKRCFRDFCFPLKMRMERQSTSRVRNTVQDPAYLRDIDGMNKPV

Chain of Delta-type opioid receptor (P41143 whole entry): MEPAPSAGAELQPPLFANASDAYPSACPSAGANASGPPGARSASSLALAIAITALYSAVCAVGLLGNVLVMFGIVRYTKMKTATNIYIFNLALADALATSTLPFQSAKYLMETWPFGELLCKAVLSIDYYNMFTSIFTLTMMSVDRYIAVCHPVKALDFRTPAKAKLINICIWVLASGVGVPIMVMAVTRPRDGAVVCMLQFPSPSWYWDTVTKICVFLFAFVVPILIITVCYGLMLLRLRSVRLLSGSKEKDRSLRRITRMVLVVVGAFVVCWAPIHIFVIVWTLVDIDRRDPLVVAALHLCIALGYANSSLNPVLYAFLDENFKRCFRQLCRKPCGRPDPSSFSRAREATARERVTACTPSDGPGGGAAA

Row | Structure (SMILES) | IC50 [1] [µM] | IC50 (Nociceptin receptor [3]) [µM] | other results
1 | CCN(Cc1ccc(C)cc1)CC(O)CN1C(=O)C2(CCN(CC3CCCCCCC3)CC2)c2ccccc21 (centres undefined) | > 10 | – | –
2 | COC(=O)CN1C(=O)C2(CCN(CC3CCCCCCC3)CC2)c2ccccc21 | > 10 | – | –
3 | CN1C(=O)C2(CCN(CC3CCCCCCC3)CC2)c2cc(F)ccc21 | – | – | inhibition (Nociceptin receptor [2]): 66%
4 | COC(=O)CN1C(=O)C2(CCN(C(=O)CCC(=O)c3ccccc3)CC2)c2ccccc21 | – | > 10 | –
5 | O=C(O)CN1C(=O)C2(CCN(CC3CCCCCCC3)CC2)c2ccccc21 | – | – | IC50 (Nociceptin receptor [3]; hek293): < 10 µM
6 | O=C1N(CC(O)CNCCN2CCOCC2)c2ccccc2C12CCN(CC1CCCCCCC1)CC2 (centres undefined) | > 10 | – | –
7 | COC(=O)CN1C(=O)C2(CCN(c3ccc4c5c(cccc35)CC4)CC2)c2ccccc21 | – | 0.35 | –
8 | COc1ccc2c(c1)N(CC1CC1)C(=O)C21CCN(CC2CCCCCCC2)CC1 | > 10 | > 10 | IC50 (Mu-type opioid receptor): 10 µM; IC50 [4]: > 10 µM
9 | Cc1cccc2c1C1(CCN(CC3CCCCCCC3)CC1)C(=O)N2C | > 10 | – | inhibition (Nociceptin receptor [2]): 81%
10 | COC(=O)CN1C(=O)C2(CCN(Cc3ccccc3-c3ccsc3)CC2)c2ccccc21 | – | 10 | –
11 | COC(=O)CN1C(=O)C2(CCN(Cc3ccc(-c4ccccc4)cc3)CC2)c2ccccc21 | – | 10 | –
12 | Cc1ccc2c(c1)N(C)C(=O)C21CCN(CC2CCCCCCC2)CC1 | – | – | inhibition (Nociceptin receptor [2]): 48%
13 | Cc1ccc2c(c1)C1(CCN(CC3CCCCCCC3)CC1)C(=O)N2C | 9.4 | – | –
14 | CCCCCCC(CCCC)CN1CCC2(CC1)C(=O)N(CC(=O)OC)c1ccccc12 (centres undefined) | – | 10 | –
15 | CCN1C(=O)C2(CCN(CC3CCCCCCC3)CC2)c2ccc(OC)cc21 | > 10 | – | –
16 | COC(=O)CN1C(=O)C2(CCN(C(=O)C3CCC(OC)CC3)CC2)c2ccccc21 (centres undefined) | – | > 10 | –
17 | COC(=O)CN1C(=O)C2(CCN(C(C)c3ccccc3)CC2)c2ccccc21 (centres undefined) | – | 10 | –
18 | O=C1Nc2ccccc2C12CCN(CC1CCCCCCC1)CC2 | > 10 | – | inhibition (Nociceptin receptor [2]): 45%
19 | O=C1N(Cc2ccccc2)c2ccccc2C12CCN(CC1CCCCCCC1)CC2 | > 10 | – | –
20 | CC(=O)OCCN1C(=O)C2(CCN(CC3CCCCCCC3)CC2)c2ccccc21 | > 10 | – | –
21 | O=C1N(CC2CO2)c2ccccc2C12CCN(CC1CCCCCCC1)CC2 (centres undefined) | > 10 | – | –
22 | CC(C)c1ccc2c(c1)C1(CCN(CC3CCCCCCC3)CC1)C(=O)N2C | > 10 | – | –
23 | COc1ccc2c(c1)N(C)C(=O)C21CCN(CC2CCCCCCC2)CC1 | > 10 | – | –
24 | CN1C(=O)C2(CCN(CC3CCCCCCC3)CC2)c2ccccc21 | > 10 | – | –
